This test deals with recombinant NL4-3 virus (Renilla luciferase in nef, Gag P373S). The experiment in a line: HIV cell culture assay (luciferase activity in MT-2 cells infected with NLRluc recombinant virus). The format is cell-based. Particulars: NL43, MT-2 cells infected 4-5 days with NLRluc recombinant virus. In outline:
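MT-2 cells in RPMI/10% FBS were infected with recombinant NL4-3 (NLRluc), produced by 293T transfection and titered in MT-2 by luciferase. Serial inhibitor dilutions were present throughout a 4–5 day infection. Antiviral activity was quantified as Renilla luciferase signal via a modified Dual Luciferase read.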

The source of these data is patent US8748415B2 (priority 2011, dated 2014).

Consider `C=C(C)[C@@H]1CC[C@]2(CNCCN3CCS(=O)(=O)CC3)CC[C@]3(C)[C@H](CC[C@@H]4[C@@]5(C)CC=C(c6ccc(C(=O)O)c(F)c6)C(C)(C)[C@@H]5CC[C@]43C)[C@@H]12` [Example 95, 4-((1R,3aS,5aR,5bR,7aR,11aS,11bR,13aR,13bR)-3a-(((2-(1,1-dioxido-4-thiomorpholinyl)ethyl)amino)methyl)-1-isopropenyl-5a,5b,8,8,11a-pentamethyl-2,3,3a,4,5,5a,5b,6,7,7a,8,11,11a,11b,12,13,13a,13b-octadecahydro-1H-cyclopenta[a]chrysen-9-yl)-2-fluorobenzoic acid], for which the half-maximal effective concentration (EC50) – broadly, the concentration giving half of the maximal effect – (class symbol) is < 100 nM.
Still for that read-out and setting: the result for `C=C(C)[C@@H]1CC[C@]2(CN3CCOC3=O)CC[C@]3(C)[C@H](CC[C@@H]4[C@@]5(C)CC=C(c6ccc(C(=O)O)cc6)C(C)(C)[C@@H]5CC[C@]43C)[C@@H]12` [Example 182, 4-((1R,3aS,5aR,5bR,7aR,11aS,11bR,13aR,13bR)-5a,5b,8,8,11a-pentamethyl-3a-((2-oxooxazolidin-3-yl)methyl)-1-(prop-1-en-2-yl)-2,3,3a,4,5,5a,5b,6,7,7a,8,11,11a,11b,12,13,13a,13b-octadecahydro-1H-cyclopenta[a]chrysen-9-yl)benzoic acid] reads < 100 nM.
The same measure, in the same setting: for `C=C(C)[C@@H]1CC[C@]2(CNC(=O)CN(C)C)CC[C@]3(C)[C@H](CC[C@@H]4[C@@]5(C)CC=C(c6ccc(C(=O)O)cc6)C(C)(C)[C@@H]5CC[C@]43C)[C@@H]12` [Example 148, 4-((1R,3aS,5aR,5bR,7aR,11aS,11bR,13aR,13bR)-3a-((2-(dimethylamino)acetamido)methyl)-5a,5b,8,8,11a-pentamethyl-1-(prop-1-en-2-yl)-2,3,3a,4,5,5a,5b,6,7,7a,8,11,11a,11b,12,13,13a,13b-octadecahydro-1H-cyclopenta[a]chrysen-9-yl)benzoic acid] the value was < 100 nM; for `C=C(C)[C@@H]1CC[C@]2(CN)CC[C@]3(C)[C@H](CC[C@@H]4[C@@]5(C)CC=C(c6ccc(C(=O)O)cc6)C(C)(C)[C@@H]5CC[C@]43C)[C@@H]12` [Example 174, 4-((1R,3aS,5aR,5bR,7aR,11aS,11bR,13aR,13bR)-3a-(aminomethyl)-5a,5b,8,8,11a-pentamethyl-1-(prop-1-en-2-yl)-2,3,3a,4,5,5a,5b,6,7,7a,8,11,11a,11b,12,13,13a,13b-octadecahydro-1H-cyclopenta[a]chrysen-9-yl)benzoic acid], < 100 nM.
`C=C(C)[C@@H]1CC[C@]2(CNCCN3CCC(CO)CC3)CC[C@]3(C)[C@H](CC[C@@H]4[C@@]5(C)CC=C(c6ccc(C(=O)O)cc6)C(C)(C)[C@@H]5CC[C@]43C)[C@@H]12` [Example 181, 4-((1R,3aS,5aR,5bR,7aR,11aS,11bR,13aR,13bR)-3a-((2-(4-(hydroxymethyl)piperidin-1-yl)ethylamino)methyl)-5a,5b,8,8,11a-pentamethyl-1-(prop-1-en-2-yl)-2,3,3a,4,5,5a,5b,6,7,7a,8,11,11a,11b,12,13,13a,13b-octadecahydro-1H-cyclopenta[a]chrysen-9-yl)benzoic acid]: the EC50 (numeric value) turned out to be 1 nM.
Consider `C=C(C)[C@@H]1CC[C@]2(CNCC(=O)N3CCC(C(=O)O)CC3)CC[C@]3(C)[C@H](CC[C@@H]4[C@@]5(C)CC=C(c6ccc(C(=O)O)cc6)C(C)(C)[C@@H]5CC[C@]43C)[C@@H]12` [Example 112, 1-(2-(((1R,3aS,5aR,5bR,7aR,11aS,11bR,13aR,13bR)-9-(4-carboxyphenyl)-5a,5b,8,8,11a-pentamethyl-1-(prop-1-en-2-yl)-2,3,3a,4,5,5a,5b,6,7,7a,8,11,11a,11b,12,13,13a,13b-octadecahydro-1H-cyclopenta[a]chrysen-3a-yl)methylamino)acetyl)piperidine-4-carboxylic acid], for which the half-maximal effective concentration (EC50) (class symbol) was < 100 nM.
As to `C=C(C)[C@@H]1CC[C@]2(CNCCc3ccc(C(=O)O)cc3)CC[C@]3(C)[C@H](CC[C@@H]4[C@@]5(C)CC=C(c6ccc(C(=O)O)cc6)C(C)(C)[C@@H]5CC[C@]43C)[C@@H]12` [Example 47, 4-((1R,3aS,5aR,5bR,7aR,11aS,11bR,13aR,13bR)-3a-((4-carboxyphenethylamino)methyl)-5a,5b,8,8,11a-pentamethyl-1-(prop-1-en-2-yl)-2,3,3a,4,5,5a,5b,6,7,7a,8,11,11a,11b,12,13,13a,13b-octadecahydro-1H-cyclopenta[a]chrysen-9-yl)benzoic acid], where the note is “class symbol”, the 50% effective concentration (EC50) is < 100 nM.
As for `C=C(C)[C@@H]1CC[C@]2(CNCCCC(=O)O)CC[C@]3(C)[C@H](CC[C@@H]4[C@@]5(C)CC=C(c6ccc(C(=O)O)cc6)C(C)(C)[C@@H]5CC[C@]43C)[C@@H]12` [Example 28, 4-((1R,3aS,5aR,5bR,7aR,11aS,11bR,13aR,13bR)-3a-((3-carboxypropylamino)methyl)-5a,5b,8,8,11a-pentamethyl-1-(prop-1-en-2-yl)-2,3,3a,4,5,5a,5b,6,7,7a,8,11,11a,11b,12,13,13a,13b-octadecahydro-1H-cyclopenta[a]chrysen-9-yl)benzoic acid], under “numeric value”, the EC50 was determined as 2 nM.
On to `C=C(C)[C@@H]1CC[C@]2(CNCCc3c[nH]cn3)CC[C@]3(C)[C@H](CC[C@@H]4[C@@]5(C)CC=C(c6ccc(C(=O)O)cc6)C(C)(C)[C@@H]5CC[C@]43C)[C@@H]12` [Example 25, 4-((1R,3aS,5aR,5bR,7aR,11aS,11bR,13aR,13bR)-3a-((2-(1H-imidazol-4-yl)ethylamino)methyl)-5a,5b,8,8,11a-pentamethyl-1-(prop-1-en-2-yl)-2,3,3a,4,5,5a,5b,6,7,7a,8,11,11a,11b,12,13,13a,13b-octadecahydro-1H-cyclopenta[a]chrysen-9-yl)benzoic acid], for which, where the note is “class symbol”, the 50% effective concentration (EC50) was < 100 nM.
On the same count and under the same terms, for `C=C(C)[C@@H]1CC[C@]2(CNC(=O)OCCN3CCCC3=O)CC[C@]3(C)[C@H](CC[C@@H]4[C@@]5(C)CC=C(c6ccc(C(=O)O)cc6)C(C)(C)[C@@H]5CC[C@]43C)[C@@H]12` [Example 162, 4-((1R,3aS,5aR,5bR,7aR,11aS,11bR,13aR,13bR)-5a,5b,8,8,11a-pentamethyl-3a-(((2-(2-oxopyrrolidin-1-yl)ethoxy)carbonylamino)methyl)-1-(prop-1-en-2-yl)-2,3,3a,4,5,5a,5b,6,7,7a,8,11,11a,11b,12,13,13a,13b-octadecahydro-1H-cyclopenta[a]chrysen-9-yl)benzoic acid] the value was < 100 nM.
For the compound `C=C(C)[C@@H]1CC[C@]2(CNCCCN(C)C)CC[C@]3(C)[C@H](CC[C@@H]4[C@@]5(C)CC=C(c6ccc(C(=O)O)cc6)C(C)(C)[C@@H]5CC[C@]43C)[C@@H]12` [Example 6, 4-((1R,3aS,5aR,5bR,7aR,11aS,11bR,13aR,13bR)-3a-((3-(dimethylamino)propylamino)methyl)-5a,5b,8,8,11a-pentamethyl-1-(prop-1-en-2-yl)-2,3,3a,4,5,5a,5b,6,7,7a,8,11,11a,11b,12,13,13a,13b-octadecahydro-1H-cyclopenta[a]chrysen-9-yl)benzoic acid], the EC50 (numeric value) was 30 nM.
On to `C=C(C)[C@@H]1CC[C@]2(CNCCOC)CC[C@]3(C)[C@H](CC[C@@H]4[C@@]5(C)CC=C(c6ccc(C(=O)O)cc6)C(C)(C)[C@@H]5CC[C@]43C)[C@@H]12` [Example 180, 4-((1R,3aS,5aR,5bR,7aR,11aS,11bR,13aR,13bR)-3a-((2-methoxyethylamino)methyl)-5a,5b,8,8,11a-pentamethyl-1-(prop-1-en-2-yl)-2,3,3a,4,5,5a,5b,6,7,7a,8,11,11a,11b,12,13,13a,13b-octadecahydro-1H-cyclopenta[a]chrysen-9-yl)benzoic acid], for which the half-maximal effective concentration (EC50) (class symbol) is < 100 nM.
The same measure, in the same setting: the result for `C=C(C)[C@@H]1CC[C@]2(CNC(=O)OCCCN3CCS(=O)(=O)CC3)CC[C@]3(C)[C@H](CC[C@@H]4[C@@]5(C)CC=C(c6ccc(C(=O)O)cc6)C(C)(C)[C@@H]5CC[C@]43C)[C@@H]12` [Example 164, 4-((1R,3aS,5aR,5bR,7aR,11aS,11bR,13aR,13bR)-3a-((((3-(1,1-dioxido-4-thiomorpholinyl)propoxy)carbonyl)amino)methyl)-1-isopropenyl-5a,5b,8,8,11a-pentamethyl-2,3,3a,4,5,5a,5b,6,7,7a,8,11,11a,11b,12,13,13a,13b-octadecahydro-1H-cyclopenta[a]chrysen-9-yl)benzoic acid] reads < 100 nM; that for `C=C(C)[C@@H]1CC[C@]2(CNCCN(C(C)C)C(C)C)CC[C@]3(C)[C@H](CC[C@@H]4[C@@]5(C)CC=C(c6ccc(C(=O)O)cc6)C(C)(C)[C@@H]5CC[C@]43C)[C@@H]12` [Example 57, 4-((1R,3aS,5aR,5bR,7aR,11aS,11bR,13aR,13bR)-3a-((2-(diisopropylamino)ethylamino)methyl)-5a,5b,8,8,11a-pentamethyl-1-(prop-1-en-2-yl)-2,3,3a,4,5,5a,5b,6,7,7a,8,11,11a,11b,12,13,13a,13b-octadecahydro-1H-cyclopenta[a]chrysen-9-yl)benzoic acid], < 100 nM; that for `C=C(C)[C@@H]1CC[C@]2(CNCCN3CCCCC3)CC[C@]3(C)[C@H](CC[C@@H]4[C@@]5(C)CC=C(c6ccc(C(=O)O)cc6)C(C)(C)[C@@H]5CC[C@]43C)[C@@H]12` [Example 9, 4-((1R,3aS,5aR,5bR,7aR,11aS,11bR,13aR,13bR)-5a,5b,8,8,11a-pentamethyl-3a-((2-(piperidin-1-yl)ethylamino)methyl)-1-(prop-1-en-2-yl)-2,3,3a,4,5,5a,5b,6,7,7a,8,11,11a,11b,12,13,13a,13b-octadecahydro-1H-cyclopenta[a]chrysen-9-yl)benzoic acid], < 100 nM.
